Conditions: Liquid

COCCO [2-methoxyethan-1-ol]
viscosity [mPa·s]
Conditions	293.15 K	303.15 K	313.15 K	323.15 K	333.15 K	343.15 K	353.15 K
100 kPa	1.707	1.398	1.162	0.984	0.843	0.731	0.635
20000 kPa	1.948	1.583	1.339	1.135	0.965	0.852	0.738
40000 kPa	2.186	1.777	1.489	1.268	1.084	0.958	0.834
60000 kPa	2.426	1.977	1.647	1.405	1.21	1.058	0.924
80000 kPa	2.659	2.176	1.814	1.544	1.338	1.149	1.006
100000 kPa	2.878	2.367	1.988	1.685	1.466	1.231	1.08

CCOCCO [2-ethoxyethan-1-ol]
viscosity [mPa·s]
Conditions	293.15 K	303.15 K	313.15 K	323.15 K	333.15 K	343.15 K	353.15 K
100 kPa	2.073	1.663	1.346	1.117	0.941	0.804	0.695
20000 kPa	2.417	1.922	1.599	1.32	1.081	0.939	0.829
40000 kPa	2.776	2.21	1.834	1.529	1.236	1.078	0.953
60000 kPa	3.145	2.512	2.071	1.743	1.408	1.221	1.068
80000 kPa	3.509	2.816	2.308	1.931	1.592	1.362	1.172
100000 kPa	3.859	3.115	2.543	2.13	1.787	1.5	1.265

CC(C)OCCO [2-isopropoxyethanol]
viscosity [mPa·s]
Conditions	293.15 K	303.15 K	313.15 K	323.15 K	333.15 K	343.15 K	353.15 K
100 kPa	2.38	1.87	1.506	1.228	1.024	0.864	0.739
20000 kPa	2.939	2.284	1.861	1.485	1.25	1.046	0.927
40000 kPa	3.493	2.691	2.186	1.731	1.48	1.236	1.09
60000 kPa	4.073	3.123	2.512	2.002	1.72	1.445	1.236
80000 kPa	4.661	3.566	2.838	2.296	1.966	1.669	1.368
100000 kPa	5.241	4.008	3.162	2.611	2.212	1.903	1.536

Source: the NIST ThermoML archive (doi:10.1016/j.fluid.2005.02.009)
